Bridge positions count the residues as written; N and C are the ends. Square brackets hold non-standard residues; d marks the D form. Peptide text beside a SMILES is read from it. Hyp = O=C(O)[C@@H]1C[C@@H](O)CN1
Assays:
[1] = Physical stability of peptide analogues (Thioflavin T fibrillation); type: physicochemical; settings: maximum ThT signal normalized between hAMY maximum and buffer background; 40° C., shaking, four days; pH 7 per table title
Method in brief: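 Samples are stressed at 40 °C for four days, being shaken at 700 rpm before each 10-min fluorescence reading of 4 μM Thioflavin T. Buffers were pH 4 acetate or pH 7 phosphate. Reported values are smoothed maximum ThT signals as a percentage of the hAMY-to-background range.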

hAMY3 receptor = molecular target: T1, hAMY3 receptor (Homo sapiens, UniProt O60896+P30988); assay: cAMP assay for in vitro receptor activation, hAMY3-R; type: cell-based; settings: cAMP assay, hAMY3 receptor; read-out: hAMY3R EC50
T1 sequence (P30988 25-474): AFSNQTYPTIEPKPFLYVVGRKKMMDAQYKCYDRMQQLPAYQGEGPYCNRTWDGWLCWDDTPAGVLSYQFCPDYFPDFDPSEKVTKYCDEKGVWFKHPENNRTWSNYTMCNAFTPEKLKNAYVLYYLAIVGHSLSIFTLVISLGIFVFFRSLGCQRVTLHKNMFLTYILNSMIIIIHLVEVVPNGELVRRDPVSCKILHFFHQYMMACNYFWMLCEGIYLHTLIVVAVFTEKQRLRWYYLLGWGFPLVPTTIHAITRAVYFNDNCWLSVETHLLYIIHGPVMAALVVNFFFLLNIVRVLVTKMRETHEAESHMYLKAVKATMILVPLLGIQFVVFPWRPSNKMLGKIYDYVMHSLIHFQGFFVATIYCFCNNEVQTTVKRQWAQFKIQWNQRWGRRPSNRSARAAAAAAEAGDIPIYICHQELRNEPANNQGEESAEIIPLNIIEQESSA
T1 sequence (O60896 24-148 partner): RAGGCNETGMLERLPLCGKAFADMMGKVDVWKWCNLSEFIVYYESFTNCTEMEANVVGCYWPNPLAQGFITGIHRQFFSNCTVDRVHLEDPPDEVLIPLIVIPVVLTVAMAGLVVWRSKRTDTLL
Method in brief: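 Accumulated cAMP was detected by time-resolved FRET one hour after reagent addition. Beforehand, hAMY3-R-overexpressing monoclonal cells (2000/well, DPBS, 0.05% casein, 0.5 mM IBMX) received graded doses of compound for 30 min at room temperature; human amylin served as positive control.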

hAM1 receptor = hAM1 receptor (Homo sapiens, UniProt O60895+Q16602); assay: cAMP assay for in vitro receptor activation, hAM1-R; type: cell-based; settings: cAMP assay, hAM1 receptor; read-out: hAM1R EC50
Method in brief: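 Monoclonal stable hAM1-overexpressing cells, thawed from frozen stock; 8000 cells/well in DPBS + 0.05% casein + 0.5 mM IBMX; read-out cAMP.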

Chain of hAM1 receptor (Q16602 23-461): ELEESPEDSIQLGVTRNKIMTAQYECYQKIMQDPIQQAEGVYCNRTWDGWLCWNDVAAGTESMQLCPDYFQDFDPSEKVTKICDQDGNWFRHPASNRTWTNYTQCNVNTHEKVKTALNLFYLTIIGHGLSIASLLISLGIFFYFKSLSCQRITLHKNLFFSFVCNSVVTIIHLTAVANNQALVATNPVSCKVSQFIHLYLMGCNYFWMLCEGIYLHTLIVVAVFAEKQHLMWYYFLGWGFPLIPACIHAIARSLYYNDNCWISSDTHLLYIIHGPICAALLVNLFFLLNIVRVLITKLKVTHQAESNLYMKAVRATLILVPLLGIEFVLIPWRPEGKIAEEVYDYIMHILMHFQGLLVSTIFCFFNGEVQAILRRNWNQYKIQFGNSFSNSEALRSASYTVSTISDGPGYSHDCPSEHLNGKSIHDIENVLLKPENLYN
Chain of hAM1 receptor (O60895 43-175 partner): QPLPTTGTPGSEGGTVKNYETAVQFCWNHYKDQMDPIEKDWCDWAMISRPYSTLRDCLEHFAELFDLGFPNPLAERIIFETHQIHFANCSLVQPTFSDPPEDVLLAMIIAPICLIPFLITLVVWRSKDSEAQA

SMILES | Max ThT signal (%) [1] [%] | EC50 (hAMY3 receptor) [nM] | EC50 (hAM1 receptor) [nM]
CC[C@H](C)[C@H](NC(=O)[C@H](CCC(N)=O)NC(=O)[C@H](Cc1c[nH]cn1)NC(=O)[C@H](C)NC(=O)[C@H](CC(C)C)NC(=O)[C@H](Cc1c[nH]c2ccccc12)NC(=O)[C@H](CCC(N)=O)NC(=O)[C@@H](NC(=O)[C@@H](NC(=O)[C@@H]1CSSC[C@H](NC(=O)[C@@H](N)CCCCN)C(=O)N[C@@H](CC(N)=O)C(=O)N[C@@H]([C@@H](C)O)C(=O)N[C@@H](C)C(=O)N[C@@H]([C@@H](C)O)C(=O)N1)[C@@H](C)O)C(C)C)C(=O)N[C@@H](Cc1ccc(O)cc1)C(=O)N[C@@H](CCC(N)=O)C(=O)N[C@@H](Cc1ccccc1)C(=O)N[C@H](C(=O)N[C@@H](CC(=O)O)C(=O)N[C@@H](CCCCN)C(=O)N[C@@H](CC(=O)O)C(=O)N[C@@H](CCCCN)C(=O)N[C@@H](CC(=O)O)C(=O)N[C@@H](CC(N)=O)C(=O)N[C@H](C(=O)N1CCC[C@H]1C(=O)N1CCC[C@H]1C(=O)N[C@H](C(=O)N[C@@H](CC(N)=O)C(=O)N[C@H](C(=O)NCC(=O)N[C@@H](CO)C(=O)N[C@@H](CC(N)=O)C(=O)NCC(=O)N1C[C@H](O)C[C@H]1C(N)=O)C(C)C)[C@@H](C)O)C(C)C)[C@@H](C)O [compound 318] (H-KCNTATCTVQWLAHQIYQFTDKDKDNVPPTNVGSNG[Hyp]-NH2; disulfide 2-7; N-terminus assumed) | 14.900 | 0.009 | > 5000
CC[C@H](C)[C@H](NC(=O)[C@H](CCC(N)=O)NC(=O)[C@H](Cc1c[nH]cn1)NC(=O)[C@H](C)NC(=O)[C@H](CC(C)C)NC(=O)[C@H](Cc1c[nH]c2ccccc12)NC(=O)[C@H](CCC(N)=O)NC(=O)[C@@H](NC(=O)[C@@H](NC(=O)[C@@H]1CSSC[C@H](NC(=O)[C@@H](N)CCCCN)C(=O)N[C@@H](CC(N)=O)C(=O)N[C@@H]([C@@H](C)O)C(=O)N[C@@H](C)C(=O)N[C@@H]([C@@H](C)O)C(=O)N1)[C@@H](C)O)C(C)C)C(=O)N[C@@H](Cc1ccc(O)cc1)C(=O)N[C@@H](CCC(N)=O)C(=O)N[C@@H](Cc1ccccc1)C(=O)N[C@H](C(=O)N[C@@H](CC(=O)O)C(=O)N[C@@H](CCCCN)C(=O)N[C@@H](CC(=O)O)C(=O)N[C@@H](CCCCN)C(=O)N[C@@H](CC(=O)O)C(=O)N[C@@H](CC(N)=O)C(=O)N[C@H](C(=O)N[C@@H](C)C(=O)N1CCC[C@H]1C(=O)N[C@H](C(=O)N[C@@H](CC(N)=O)C(=O)N[C@H](C(=O)NCC(=O)N[C@@H](CO)C(=O)N[C@@H](CC(N)=O)C(=O)NCC(=O)N1C[C@H](O)C[C@H]1C(N)=O)C(C)C)[C@@H](C)O)C(C)C)[C@@H](C)O [compound 319] (H-KCNTATCTVQWLAHQIYQFTDKDKDNVAPTNVGSNG[Hyp]-NH2; disulfide 2-7; N-terminus assumed) | 3.900 | 0.018 | > 5000
CC[C@H](C)[C@H](NC(=O)[C@H](CCC(N)=O)NC(=O)[C@H](Cc1c[nH]cn1)NC(=O)[C@H](C)NC(=O)[C@H](CC(C)C)NC(=O)[C@H](Cc1c[nH]c2ccccc12)NC(=O)[C@H](CCC(N)=O)NC(=O)[C@@H](NC(=O)[C@@H](NC(=O)[C@@H]1CSSC[C@H](NC(=O)[C@@H](N)CCCCN)C(=O)N[C@@H](CC(N)=O)C(=O)N[C@@H]([C@@H](C)O)C(=O)N[C@@H](C)C(=O)N[C@@H]([C@@H](C)O)C(=O)N1)[C@@H](C)O)C(C)C)C(=O)N[C@@H](Cc1ccc(O)cc1)C(=O)N[C@@H](CCC(N)=O)C(=O)N[C@@H](Cc1ccccc1)C(=O)N[C@H](C(=O)N[C@@H](CC(=O)O)C(=O)N[C@@H](CCCCN)C(=O)N[C@@H](C)C(=O)N[C@@H](CCCCN)C(=O)N[C@@H](CC(=O)O)C(=O)N[C@@H](CC(N)=O)C(=O)N[C@H](C(=O)N[C@@H](C)C(=O)N1CCC[C@H]1C(=O)N1CCC[C@H]1C(=O)N[C@H](C(=O)N[C@@H](CC(N)=O)C(=O)N[C@H](C(=O)NCC(=O)N[C@@H](CO)C(=O)N[C@@H](CC(N)=O)C(=O)NCC(=O)N1C[C@H](O)C[C@H]1C(N)=O)C(C)C)[C@@H](C)O)C(C)C)[C@@H](C)O [compound 320] (H-KCNTATCTVQWLAHQIYQFTDKAKDNVAPPTNVGSNG[Hyp]-NH2; disulfide 2-7; N-terminus assumed) | 11.100 | 0.009 | > 5000
CC[C@H](C)[C@H](NC(=O)[C@H](CCC(N)=O)NC(=O)[C@H](Cc1c[nH]cn1)NC(=O)[C@H](C)NC(=O)[C@H](CC(C)C)NC(=O)[C@H](Cc1c[nH]c2ccccc12)NC(=O)[C@H](CCC(N)=O)NC(=O)[C@@H](NC(=O)[C@@H](NC(=O)[C@@H]1CSSC[C@H](NC(=O)CN)C(=O)N[C@@H](CCCNC(=N)N)C(=O)N[C@@H]([C@@H](C)O)C(=O)NCC(=O)N[C@@H]([C@@H](C)O)C(=O)N1)[C@@H](C)O)C(C)C)C(=O)N[C@@H](Cc1ccc(O)cc1)C(=O)N[C@@H](CCC(N)=O)C(=O)N[C@@H](Cc1ccccc1)C(=O)N[C@H](C(=O)N[C@@H](CC(=O)O)C(=O)N[C@@H](CCCCN)C(=O)N[C@@H](CC(=O)O)C(=O)N[C@@H](CCCCN)C(=O)N[C@@H](CC(=O)O)C(=O)N[C@@H](CC(N)=O)C(=O)N[C@H](C(=O)N[C@@H](C)C(=O)N1CCC[C@H]1C(=O)N[C@@H](CCCNC(=N)N)C(=O)N[C@H](C(=O)N[C@@H](CC(N)=O)C(=O)N[C@H](C(=O)NCC(=O)N1CCC[C@H]1C(=O)N[C@@H](CCC(N)=O)C(=O)NCC(=O)N1C[C@H](O)C[C@H]1C(N)=O)C(C)C)[C@@H](C)O)C(C)C)[C@@H](C)O [compound 323] (H-GCRTGTCTVQWLAHQIYQFTDKDKDNVAPRTNVGPQG[Hyp]-NH2; disulfide 2-7; N-terminus assumed) | 27.500 | 0.014 | > 5000
CC[C@H](C)[C@H](NC(=O)[C@H](CCC(N)=O)NC(=O)[C@H](Cc1c[nH]cn1)NC(=O)[C@H](C)NC(=O)[C@H](CC(C)C)NC(=O)[C@H](Cc1c[nH]c2ccccc12)NC(=O)[C@H](CCC(N)=O)NC(=O)[C@@H](NC(=O)[C@@H](NC(=O)[C@@H]1CSSC[C@H](NC(=O)[C@@H](N)CCCCN)C(=O)N[C@@H](CC(N)=O)C(=O)N[C@@H]([C@@H](C)O)C(=O)N[C@@H](C)C(=O)N[C@@H]([C@@H](C)O)C(=O)N1)[C@@H](C)O)C(C)C)C(=O)N[C@@H](Cc1ccc(O)cc1)C(=O)N[C@@H](CCC(N)=O)C(=O)N[C@@H](Cc1ccccc1)C(=O)N[C@H](C(=O)N[C@@H](CC(=O)O)C(=O)N[C@@H](CCCCN)C(=O)N[C@@H](CC(=O)O)C(=O)N[C@@H](CCCCN)C(=O)N[C@@H](CC(=O)O)C(=O)N[C@@H](C)C(=O)N[C@H](C(=O)N[C@@H](C)C(=O)N1CCC[C@H]1C(=O)N1CCC[C@H]1C(=O)N[C@H](C(=O)N[C@@H](CC(N)=O)C(=O)N[C@H](C(=O)NCC(=O)N[C@@H](CO)C(=O)N[C@@H](CC(N)=O)C(=O)NCC(=O)N1C[C@H](O)C[C@H]1C(N)=O)C(C)C)[C@@H](C)O)C(C)C)[C@@H](C)O [compound 324] (H-KCNTATCTVQWLAHQIYQFTDKDKDAVAPPTNVGSNG[Hyp]-NH2; disulfide 2-7; N-terminus assumed) | 11.850 | 0.028 | > 5000
CC[C@H](C)[C@H](NC(=O)[C@H](CCC(N)=O)NC(=O)[C@H](Cc1c[nH]cn1)NC(=O)[C@H](C)NC(=O)[C@H](CC(C)C)NC(=O)[C@H](Cc1c[nH]c2ccccc12)NC(=O)[C@H](CCC(N)=O)NC(=O)[C@@H](NC(=O)[C@@H](NC(=O)[C@@H]1CSSC[C@H](NC(=O)[C@@H](N)CCCCN)C(=O)N[C@@H](CC(N)=O)C(=O)N[C@@H]([C@@H](C)O)C(=O)N[C@@H](C)C(=O)N[C@@H]([C@@H](C)O)C(=O)N1)[C@@H](C)O)C(C)C)C(=O)N[C@@H](Cc1ccc(O)cc1)C(=O)N[C@@H](CCC(N)=O)C(=O)N[C@@H](Cc1ccccc1)C(=O)N[C@H](C(=O)N[C@@H](CC(=O)O)C(=O)N[C@@H](CCCCN)C(=O)N[C@@H](CC(=O)O)C(=O)N[C@@H](CCCCN)C(=O)N[C@@H](CC(=O)O)C(=O)N[C@@H](CC(N)=O)C(=O)N[C@H](C(=O)N[C@@H](C)C(=O)N[C@@H](C)C(=O)N1CCC[C@H]1C(=O)N[C@H](C(=O)N[C@@H](CC(N)=O)C(=O)N[C@H](C(=O)NCC(=O)N[C@@H](CO)C(=O)N[C@@H](CC(N)=O)C(=O)NCC(=O)N1C[C@H](O)C[C@H]1C(N)=O)C(C)C)[C@@H](C)O)C(C)C)[C@@H](C)O [compound 325] (H-KCNTATCTVQWLAHQIYQFTDKDKDNVAAPTNVGSNG[Hyp]-NH2; disulfide 2-7; N-terminus assumed) | 10.100 | 0.025 | > 5000

From patent US12139520B2 (priority 2020, dated 2024)
